From paper PMC7248705, “A Pharmacokinetic and Pharmacodynamic Evaluation of the Anti-Hepatocellular Carcinoma Compound 4-N-Carbobenzoxy-gemcitabine (Cbz-dFdC)” (Molecules, 2020)
“Also recorded” adds a separate entry of the source.

Legend:
[1] = Plasma pharmacokinetics in vivo; conditions: SD, rat, po; plasma analyte after i.g. Cbz-dFdC 22 mg/kg, rats
Procedure: SD rats (n = 6) were intragastrically administered Cbz-dFdC (22 mg/kg) and intravenously injected with dFdC (15 mg/kg), and 150 μL blood samples were collected from the retro-orbital route in the right eye at 0, 5, 10, 20, and 30 min and at 1, 2, 4, 6, 12, 24, and 48 h, using heparinized tubes. Without delay, the blood was directly centrifuged at 8000× g at 4 °C for 5 min. Then, the supernatant plasma was collected and immediately extracted using a previously established method or was frozen at −80 °C until further analysis.

[2] = Enzymatic kinetics in vitro, rat blood; format: in vitro ADME; conditions: 37 °C, 30 min, 5–200 μM Cbz-dFdC
Procedure: (§1) The SD rats without any treatment were sacrificed after adapting to the environment. Blank blood, the liver, the kidney, and the intestine were collected and treated as described in Section 4.4. Part of the homogenate was removed for centrifugation for 20 min at 9000× g at 4 °C, and the supernatant was obtained as tissue S9. The tissue homogenate and S9 were diluted to […] after the protein concentration was determined by the BCA kit (Abcam, Cambridge, MA, USA). Each matrix consisted of 45 uL of the matrix mixed with 5 uL of the drug dissolved in normal saline solution for about 3 min, followed by incubation at 37 °C in a water bath. Then, acetonitrile containing the internal standard was added to terminate the reaction. Human tissue S9 and human CES1 recombinase purchased from the Ruid Liver Disease Research Co., Ltd. (Shanghai, China) were incubated under the same conditions. An enzyme kinetic study was obtained from the matrix following incubation at 37 °C for 30 min with 5, 10, 20, 50, 100, or 200 μM of Cbz-dFdC. We estimated the parameters and simulated curves according to the Eadie–Hofstee method.

[3] = Enzymatic kinetics in vitro, rat plasma; format: in vitro ADME; conditions: 37 °C, 30 min, 5–200 μM Cbz-dFdC
Procedure: as §1

[4] = Enzymatic kinetics in vitro, rat liver homogenate; format: in vitro ADME; conditions: 37 °C, 30 min, 5–200 μM Cbz-dFdC
Procedure: as §1

[5] = Enzymatic kinetics in vitro, rat liver S9; format: in vitro ADME; conditions: 37 °C, 5–200 μM Cbz-dFdC
Procedure: as §1

[6] = Enzymatic kinetics in vitro, rat kidney homogenate; format: in vitro ADME; conditions: 37 °C, 30 min, 5–200 μM Cbz-dFdC
Procedure: as §1

[7] = Enzymatic kinetics in vitro, rat kidney S9; format: in vitro ADME; conditions: 37 °C, 5–200 μM Cbz-dFdC
Procedure: as §1

CES1 = biological target: T1, CES1 (Homo sapiens, UniProt P23141); experiment: Enzymatic kinetics in vitro, human CES1 recombinase; format: in vitro ADME; conditions: recombinant human CES1, 37 °C, 30 min, 5–200 μM Cbz-dFdC, read-out: Clint, disappearance of Cbz-dFdC
T1 construct: purchased Ruid Liver Disease Research Co., Ltd. (Shanghai, China)
T1 sequence (P23141 18-567): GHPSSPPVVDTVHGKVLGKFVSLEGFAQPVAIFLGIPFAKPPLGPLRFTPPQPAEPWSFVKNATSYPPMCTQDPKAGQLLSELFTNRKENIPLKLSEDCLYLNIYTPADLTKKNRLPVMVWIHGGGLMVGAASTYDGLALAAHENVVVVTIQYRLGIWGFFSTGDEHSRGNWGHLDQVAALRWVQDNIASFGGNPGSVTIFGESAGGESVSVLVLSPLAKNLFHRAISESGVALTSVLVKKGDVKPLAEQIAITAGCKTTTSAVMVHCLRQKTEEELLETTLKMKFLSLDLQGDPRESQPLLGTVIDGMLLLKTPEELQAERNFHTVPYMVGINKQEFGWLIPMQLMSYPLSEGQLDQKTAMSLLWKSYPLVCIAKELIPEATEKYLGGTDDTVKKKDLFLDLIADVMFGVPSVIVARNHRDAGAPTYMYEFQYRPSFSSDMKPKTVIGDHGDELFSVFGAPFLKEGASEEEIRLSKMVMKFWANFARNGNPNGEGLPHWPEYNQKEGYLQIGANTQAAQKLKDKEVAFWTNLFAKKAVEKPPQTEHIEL
Procedure: as §1

[8] = Incubation in rat intestine homogenate and S9; format: in vitro ADME
Procedure: as §1

[9] = Incubation in human plasma and S9 of the kidney and intestine; format: in vitro ADME
Procedure: as §1

human HepG2 cell line = experiment: CCK-8 tumor cell growth inhibition assay; format: cell-based; conditions: HepG2, CCK-8, concentration-dependent
Procedure: (§2) The cells were cultured on a 96-well plate for 4 h for each well. Then, dimethyl sulfoxide solution containing 0.1–100 mM of Cbz-dFdC and dFdC was diluted 1000 times with the medium before administration. A total of 200 uL of medium containing Cbz-dFdC and dFdC was added per well (n = 6). The medium with drugs was discarded, and 10% CCK-8 solution was added. Then, the absorbance value was read at a wavelength of 450 nm after incubation at 37 °C, for 30 min. The drug concentration of Cbz-dFdC and dFdC in cell were determined by a previously established method.

HepG2 cells = experiment: Cell uptake in HepG2 cells; format: cell-based, human
Procedure: as §2

[10] = read-out: Km, appearance of dFdC
[11] = read-out: Km, disappearance of Cbz-dFdC
[12] = SD, read-out: Clint, disappearance of Cbz-dFdC
[13] = SD, read-out: Km, disappearance of Cbz-dFdC
[14] = SD, 30 min, read-out: Clint, disappearance of Cbz-dFdC

- AUC(0-inf) [1]: 2690 ± 457 ng·h/mL
- Cmax [1]: 451 ± 107 ng/mL
- Tmax [1]: 2 h
- half-life [1]: 9.91 ± 1.87 h
- Km [2, 10]: 73.2 µM
- Km [2, 11]: 69.8 µM
- microsomal CLint [2, 12]: 4890 µL/min/mg
- Km [3, 10]: 101 µM
- Km [3, 11]: 90.3 µM
- microsomal CLint [3, 12]: 5380 µL/min/mg
- Km [4, 10]: 96.4 µM
- Km [4, 11]: 190 µM
- microsomal CLint [4, 12]: 2170 µL/min/mg
- Km at 30 min [5, 13]: 96.3 µM
- microsomal CLint [5, 14]: 1760 µL/min/mg
- Km [6, 10]: 48.9 µM
- Km [6, 11]: 148 µM
- microsomal CLint [6, 12]: 1100 µL/min/mg
- Km at 30 min [7, 13]: 269 µM
- microsomal CLint [7, 14]: 770 µL/min/mg
- microsomal CLint (CES1): 72700 µL/min/mg
- stability towards CES2 in rats ([8]; concluded from tissue-specific CES expression, rats): relatively stable in CES2
- degradation in rat intestine homogenate and S9 ([8]; rat intestine homogenate and S9, dFdC not generated): essentially non-degradable
- stability towards CES2 in humans ([9]; concluded from tissue-specific CES expression, humans): relatively stable in CES2
- degradation in human plasma and S9 of the kidney and intestine ([9]; human plasma, kidney S9, intestine S9): did not degrade
- intracellular concentration (cell uptake) (HepG2 cells): low
Compound: O=C(Nc1ccn([C@@H]2O[C@H](CO)[C@@H](O)C2(F)F)c(=O)n1)OCc1ccccc1 [Cbz-dFdC, 4-N-carbobenzoxy-gemcitabine]
- Vmax, appearance of dFdC [2]: 178.5 nmol/min/mg pro
- Vmax, disappearance of Cbz-dFdC [2]: 341.1 nmol/min/mg pro
- Vmax, appearance of dFdC [3]: 230.4 nmol/min/mg pro
- Vmax, disappearance of Cbz-dFdC [3]: 486.2 nmol/min/mg pro
- Vmax, appearance of dFdC [4]: 86.8 nmol/min/mg pro
- Vmax, disappearance of Cbz-dFdC [4]: 411.6 nmol/min/mg pro
- Vmax, appearance of dFdC ([5]; 30 min): 49.5 nmol/min/mg pro
- Vmax, disappearance of Cbz-dFdC ([5]; 30 min): 169.6 nmol/min/mg pro
- Vmax, appearance of dFdC [6]: 44.3 nmol/min/mg pro
- Vmax, disappearance of Cbz-dFdC [6]: 162.7 nmol/min/mg pro
- Vmax, appearance of dFdC ([7]; 30 min): 50.2 nmol/min/mg pro
- Vmax, disappearance of Cbz-dFdC ([7]; 30 min): 206.5 nmol/min/mg pro
- cytotoxicity / tumor cell growth inhibition (human HepG2 cell line): certain cytotoxicity; also recorded: lower than that of an equimolar dose of dFdC
